For one assay, the system named is SH-SY5Y M-currents (KCNQ2, KCNQ3 and KCNQ5). Briefly: SH-SY5Y native cell line FLIPR assay (voltage-sensitive dye DiBAC). The assay is classed as cell-based, mouse neuroblastoma, rat glioma hybrid cell line. To be noted: FLIPR assay, SH-SY5Y native cell line; Table 1; read-out: SH-SY5Y EC50. The source says: SH-SY5Y cells, a mouse neuroblastoma, rat glioma hybrid cell line, functionally express M-currents (Robbins et al., J. Physiol. 451: 159-85 (1992). SH-SY5Y M-currents are likely comprised, at least in part, of KCNQ2, KCNQ3 and KCNQ5, since these genes are reportedly robustly expressed in differentiated SH-SY5Y cells (Selyanko et al., J. Neurosci. 19(18): 7742-56 (1999); Schroeder et al., J. Biol. Chem. 275(31): 24089-95 (2000)) and KCNQ3 dominant-negative constructs reduce M-current density in these cells (Selyanko et al., J. Neurosci. 22(5): RC212 (2002).
SH-SY5Y were maintained in DMEM (high glucose) supplemented with 10% fetal bovine serum, 0.05 mM pyridoxine, 0.1 mM hypoxanthine, 400 nM aminopterin, […], 50 μgml^−1 gentamycin and 10 mM HEPES, in an incubator at 37° C. with a humidified atmosphere of 5% CO2. Cells were plated in 96 well plates differentiated by addition of 10 μM PGE1 and 50 μM isomethylbutylxanthine to the growth media prior to study.
Differentiated SH-SY5Y cells were loaded with voltage-sensitive dye by incubation in Earls Balanced Salt Solution (EBSS) containing […] DiBAC for 1 h. Following loading, drug solution containing […] DiBAC was added to each well. Changes in fluorescence were measured every 30 s for 25 min. The maximum change in fluorescence was measured and expressed as a percentage of the maximum response obtained in the presence of a positive control agent.
For `Cc1cccc2nc(NC(=O)C(F)(F)F)cn12` [Compound 8, 2,2,2-trifluoro-N-(5-methylimidazo[1,2-a]pyridin-2-yl)acetamide], the EC50 is 3 to 10 µM.
For the molecule `Cc1cccc2nc(NC(=O)CC(C)(C)C)cn12` [Compound 9, 3,3-dimethyl-N-(5-methylimidazo[1,2-a]pyridin-2-yl)butanamide], the EC50 is 3 to 10 µM.
On the same count and under the same terms, the result for `O=C(Nc1cn2cc(F)ccc2n1)C(F)(F)F` [Compound 10, 2,2,2-trifluoro-N-(6-fluoroimidazo[1,2-a]pyridin-2-yl)acetamide] reads 3 to 10 µM; that for `O=C(Nc1nc2ccc(F)cn2c1I)C(F)(F)F` [Compound 11, 2,2,2-trifluoro-N-(6-fluoro-3-iodoimidazo[1,2-a]pyridin-2-yl)acetamide], 3 to 10 µM.
On the same count and under the same terms, in the case of `O=C(Nc1cn2c(C(F)(F)F)cccc2n1)C(F)(F)F` [Compound 12, 2,2,2-trifluoro-N-(5-(trifluoromethyl)imidazo[1,2-a]pyridin-2-yl)acetamide] it was 3 to 10 µM.
The same measure, in the same setting: the result for `O=C(Cc1ccc(F)cc1)Nc1cn2c(C(F)(F)F)cccc2n1` [Compound 13, 2-(4-fluorophenyl)-N-(5-(trifluoromethyl)imidazo[1,2-a]pyridin-2-yl)acetamide] reads 3 to 10 µM; that for `CC(C)(C)CC(=O)Nc1nc2ccc(F)cn2c1C1CC1` [Compound 14, N-(3-cyclopropyl-6-fluoroimidazo[1,2-a]pyridin-2-yl)-3,3-dimethylbutanamide], 0.5 to 3 µM; that for `CC(C)(C)CC(=O)Nc1nc2ccc(F)cn2c1CC(C)(C)C` [Compound 15, N-(6-fluoro-3-neopentylimidazo[1,2-a]pyridin-2-yl)-3,3-dimethylbutanamide], 0.5 to 3 µM.
For `CC(C)(C)CC(=O)Nc1nc2ccc(F)cn2c1Cc1ccc(F)cc1` [Compound 16, N-(6-fluoro-3-(4-fluorobenzyl)imidazo[1,2-a]pyridin-2-yl)-3,3-dimethylbutanamide], the EC50 was < 0.5 µM.
Turning to `CC(C)(C)Cc1c(NC(=O)Cc2ccc(F)cc2)nc2ccc(F)cn12` [Compound 17, N-(6-fluoro-3-neopentylimidazo[1,2-a]pyridin-2-yl)-2-(4-fluorophenyl) acetamide], the EC50 is < 0.5 µM.
The same measure, in the same setting: the result for `O=C(Cc1ccc(F)cc1)Nc1nc2ccc(F)cn2c1Cc1ccc(F)cc1` [Compound 18, N-(6-fluoro-3-(4-fluorobenzyl)imidazo[1,2-a]pyridin-2-yl)-2-(4-fluorophenyl)acetamide] reads < 0.5 µM.
Take `CC(C)(C)Cc1c(NC(=O)Cc2ccc(F)cc2)nc2ccc(C(F)(F)F)cn12` [Compound 21, 2-(4-fluorophenyl)-N-(3-neopentyl-6-(trifluoromethyl)imidazo[1,2-a]pyridin-2-yl)acetamide]: the EC50 is < 0.5 µM.
Still for that read-out and setting: in the case of `CC(C)(C)Cc1c(NC(=O)Cc2ccc(Oc3ccccc3)cc2)nc2ccc(C(F)(F)F)cn12` [Compound 22, N-(3-neopentyl-6-(trifluoromethyl)imidazo[1,2-a]pyridin-2-yl)-2-(4-phenoxyphenyl)acetamide] it was < 0.5 µM.
On the same count and under the same terms, the result for `CC(C)(C)Cc1c(NC(=O)Cc2cccc(OC(F)(F)F)c2)nc2ccc(C(F)(F)F)cn12` [Compound 25, N-(3-neopentyl-6-(trifluoromethyl)imidazo[1,2-a]pyridin-2-yl)-2-(3-(trifluoromethoxy)phenyl)acetamide] reads < 0.5 µM.
On the same count and under the same terms, the result for `CC(C)(C)Cc1c(NC(=O)Cc2ccc(OC(F)(F)F)cc2)nc2ccc(C(F)(F)F)cn12` [Compound 26, N-(3-neopentyl-6-(trifluoromethyl)imidazo[1,2-a]pyridin-2-yl)-2-(4-(trifluoromethoxy)phenyl)acetamide] reads < 0.5 µM; that for `CC(C)(C)Cc1c(NC(=O)Cc2ccc(Cl)cc2)nc2ccc(C(F)(F)F)cn12` [Compound 27, 2-(4-chlorophenyl)-N-(3-neopentyl-6-(trifluoromethyl)imidazo[1,2-a]pyridin-2-yl)acetamide], < 0.5 µM; that for `CC(C)(C)CC(=O)Nc1nc2ccc(F)cn2c1Cc1ccc(C(F)(F)F)cc1` [Compound 28, N-(6-fluoro-3-(4-(trifluoromethyl)benzyl)imidazo[1,2-a]pyridin-2-yl)-3,3-dimethylbutanamide], < 0.5 µM.
For the molecule `CC(CC(=O)Nc1nc2ccc(F)cn2c1Cc1ccc(C(F)(F)F)cc1)C(F)(F)F` (stereo not drawn) [Compound 29, 4,4,4-trifluoro-N-(6-fluoro-3-(4-(trifluoromethyl)benzyl)imidazo[1,2-a]pyridin-2-yl)-3-methylbutanamide], the EC50 was < 0.5 µM.
The same measure, in the same setting: in the case of `CC(C)C(C)C(=O)Nc1nc2ccc(F)cn2c1Cc1ccc(C(F)(F)F)cc1` (stereo not drawn) [Compound 30, N-(6-fluoro-3-(4-(trifluoromethyl)benzyl)imidazo[1,2-a]pyridin-2-yl)-2,3-dimethylbutanamide] it was 0.5 to 3 µM; in that of `CC(C)CCc1c(NC(=O)CC(C)(C)C)nc2ccc(C(F)(F)F)cn12` [Compound 31, N-(3-isopentyl-6-(trifluoromethyl)imidazo[1,2-a]pyridin-2-yl)-3,3-dimethylbutanamide], < 0.5 µM; in that of `CC(C)(C)CC(=O)Nc1nc2ccc(C(F)(F)F)cn2c1C1CCCCC1` [Compound 33, N-(3-cyclohexyl-6-(trifluoromethyl)imidazo[1,2-a]pyridin-2-yl)-3,3-dimethylbutanamide], < 0.5 µM.
Same read-out and setting: in the case of `CC(C)(C)Cc1c(NC(=O)CC2(C)CCCC2)nc2ccc(C(F)(F)F)cn12` [Compound 34, 2-(1-methylcyclopentyl)-N-(3-neopentyl-6-(trifluoromethyl)imidazo[1,2-a]pyridin-2-yl)acetamide] it was < 0.5 µM.
The same measure, in the same setting: the result for `CC(C)(C)Cc1c(NC(=O)Cc2cccc(Cl)c2)nc2ccc(C(F)(F)F)cn12` [Compound 35, 2-(3-chlorophenyl)-N-(3-neopentyl-6-(trifluoromethyl)imidazo[1,2-a]pyridin-2-yl)acetamide] reads < 0.5 µM.
As for `CC(C)CCc1c(NC(=O)Cc2ccccc2)nc2ccc(C(F)(F)F)cn12` [Compound 36, N-(3-isopentyl-6-(trifluoromethyl)imidazo[1,2-a]pyridin-2-yl)-2-phenylacetamide], the EC50 was < 0.5 µM.
Same read-out and setting: the result for `O=C(Cc1ccccc1)Nc1nc2ccc(C(F)(F)F)cn2c1CC1CCCCC1` [Compound 37, N-(3-(cyclohexylmethyl)-6-(trifluoromethyl)imidazo[1,2-a]pyridin-2-yl)-2-phenylacetamide] reads < 0.5 µM.
Regarding `CC(C)CCc1c(NC(=O)Cc2ccc(F)cc2)nc2ccc(C(F)(F)F)cn12` [Compound 39, 2-(4-fluorophenyl)-N-(3-isopentyl-6-(trifluoromethyl)imidazo[1,2-a]pyridin-2-yl)acetamide], the EC50 was < 0.5 µM.
The same measure, in the same setting: in the case of `O=C(Cc1ccc(F)cc1)Nc1nc2ccc(C(F)(F)F)cn2c1CC1CCCCC1` [Compound 40, N-(3-(cyclohexylmethyl)-6-(trifluoromethyl)imidazo[1,2-a]pyridin-2-yl)-2-(4-fluorophenyl)acetamide] it was < 0.5 µM.
Still for that read-out and setting: the result for `O=C(Cc1ccc(F)cc1)Nc1nc2ccc(C(F)(F)F)cn2c1C1CCCCC1` [Compound 41, N-(3-cyclohexyl-6-(trifluoromethyl)imidazo[1,2-a]pyridin-2-yl)-2-(4-fluorophenyl)acetamide] reads < 0.5 µM; that for `CC(C)CCc1c(NC(=O)Cc2cccc(Cl)c2)nc2ccc(C(F)(F)F)cn12` [Compound 42, 2-(3-chlorophenyl)-N-(3-isopentyl-6-(trifluoromethyl)imidazo[1,2-a]pyridin-2-yl)acetamide], < 0.5 µM; that for `O=C(Cc1cccc(Cl)c1)Nc1nc2ccc(C(F)(F)F)cn2c1CC1CCCCC1` [Compound 43, 2-(3-chlorophenyl)-N-(3-(cyclohexylmethyl)-6-(trifluoromethyl)imidazo[1,2-a]pyridin-2-yl)acetamide], < 0.5 µM.
Still for that read-out and setting: in the case of `O=C(Cc1cccc(Cl)c1)Nc1nc2ccc(C(F)(F)F)cn2c1C1CCCCC1` [Compound 44, 2-(3-chlorophenyl)-N-(3-cyclohexyl-6-(trifluoromethyl)imidazo[1,2-a]pyridin-2-yl)acetamide] it was < 0.5 µM.
In the case of `CC(C)CCc1c(NC(=O)CC2(C)CCCC2)nc2ccc(C(F)(F)F)cn12` [Compound 45, N-(3-isopentyl-6-(trifluoromethyl)imidazo[1,2-a]pyridin-2-yl)-2-(1-methylcyclopentyl)acetamide], the EC50 was < 0.5 µM.

Staying with this assay, now noted: FLIPR assay, SH-SY5Y native cell line; Table 2; read-out: SH-SY5Y EC50.
In the case of “2-(3,4-dichlorophenyl)-N-(6-fluoro-3-(4-fluorophenyl)imidazo yl)acetamide [Compound 142]”, the EC50 is < 0.5 µM.
Same read-out and setting: in the case of “2-(3-chlorophenyl)-N-(6-fluoro-3-(4-(trifluoromethoxy)phenyl)imidazo yl)acetamide [Compound 239]” it was < 0.5 µM; in that of “3-tert-butoxy-N-(6-fluoro-3-(4-(trifluoromethoxy)phenyl)imidazo yl)propanamide [Compound 261]”, < 0.5 µM.

Staying with this assay, now noted: read-out: SH-SY5Y_EC50.
Turning to `CC(C)(C)CC(=O)Nc1nc2ccc(F)cn2c1C1CC1` [Compound 14, N-(3-cyclopropyl-6-fluoroimidazo[1,2-a]pyridin-2-yl)-3,3-dimethylbutanamide], the EC50 came to 2.55 µM.

Source of the values: patent publication US9018208B2, “Heterocycles as potassium channel modulators” (Icagen Inc., priority 2007, dated 2015).
